“Also recorded” adds a separate entry of the source.
What was measured:
Format in all cases: biochemical
PTP-β = PTP-β (Homo sapiens, UniProt P23467); experiment: Colorimetric PTP-β assay using p-NPP as substrate; conditions: 5 µM compound; 1 mM p-NPP as substrate
Cdc25a = target: T1, Cdc25a (Homo sapiens, UniProt P30304); experiment: OMFP phosphatase assay, Cdc25a; conditions: for Mode of inhibition of Cdc25a: Michaelis-Menten kinetics, varying inhibitor concentrations; for Reversibility of inhibition of Cdc25a: dilution method: pre-incubation at 4 times IC50, 10-fold dilution
T1 sequence (P30304 376-482 limits assumed): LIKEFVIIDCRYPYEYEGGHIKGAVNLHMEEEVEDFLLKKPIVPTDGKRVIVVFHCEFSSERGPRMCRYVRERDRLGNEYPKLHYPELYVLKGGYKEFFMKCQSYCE

Cdc25b = target: T2, Cdc25b (Homo sapiens, UniProt P30305); experiment: OMFP phosphatase assay, Cdc25b; conditions: for Mode of inhibition of Cdc25b: Michaelis-Menten kinetics, varying inhibitor concentrations; for Reversibility of inhibition of Cdc25b: dilution method: pre-incubation at 4 times IC50, 10-fold dilution
T2 sequence (P30305 431-538 limits assumed): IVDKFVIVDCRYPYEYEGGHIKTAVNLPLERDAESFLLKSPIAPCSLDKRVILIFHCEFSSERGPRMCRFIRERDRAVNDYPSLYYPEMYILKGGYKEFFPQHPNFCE

Cdc25c = target: T3, Cdc25c (Homo sapiens, UniProt P30307); experiment: OMFP phosphatase assay, Cdc25c
T3 sequence (P30307 321-428 limits assumed): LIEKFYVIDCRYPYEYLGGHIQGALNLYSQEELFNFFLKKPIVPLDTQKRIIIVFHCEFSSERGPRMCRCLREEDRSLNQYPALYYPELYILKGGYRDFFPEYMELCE

Chain of PTP-β (P23467 1703-1963 limits assumed): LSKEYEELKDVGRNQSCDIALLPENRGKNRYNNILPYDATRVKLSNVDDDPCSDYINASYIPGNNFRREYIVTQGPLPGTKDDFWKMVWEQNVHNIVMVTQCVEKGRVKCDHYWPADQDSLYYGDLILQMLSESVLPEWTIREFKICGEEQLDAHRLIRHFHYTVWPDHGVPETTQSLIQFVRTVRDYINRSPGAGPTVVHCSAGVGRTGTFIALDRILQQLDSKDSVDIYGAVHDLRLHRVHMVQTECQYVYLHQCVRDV

Row | Compound | Inhibition of PTP-β (PTP-β) | Mode of inhibition of Cdc25a (Cdc25a; OMFP) | Reversibility of inhibition of Cdc25a (Cdc25a) | Mode of inhibition of Cdc25b (Cdc25b; OMFP) | Reversibility of inhibition of Cdc25b (Cdc25b) | Effect on activity of Cdc25c (Cdc25c; 10 µM compound) | Potency relative to 13778 for Cdc25a (fold lower) (Cdc25a; OMFP) | Potency relative to 13778 for Cdc25b (fold lower) (Cdc25b; OMFP) | Effect on activity of Cdc25c (Cdc25c; at the concentrations tested)
1 | O=C(O)/C=C/c1ccc[c]([Sb](=[O])([OH])[OH])c1 [Compound 13778, (E)-3-(3-stibonophenyl)acrylic acid] | almost completely inhibiting phosphatase activity | partial mixed-type mode of inhibition | reversible | partial mixed-type mode of inhibition | reversible | not substantially affected | – | – | –
2 | [O]=[Sb]([OH])([OH])[c]1ccccc1 [Compound 13744] | does not show any inhibitory effect; also recorded: No inhibition | – | – | – | – | – | – | – | –
3 | O=C(O)CCc1ccc[c]([Sb](=[O])([OH])[OH])c1 [Compound P6949, 3-(3-stibonophenyl)propanoic acid] | almost completely inhibiting phosphatase activity | partial mixed-type mode of inhibition | reversible | partial mixed-type mode of inhibition | reversible | – | ~ 30 fold | ~ 10 fold | not affected
